Earlier results, collected in patent US9512158B2, “Enhanced immunogenicity of tumor associated antigens by addition of alphagal epitopes” (NewLink Genetics Corp., priority 2006, dated 2016).

Tests used:
[1] = tested on: B16 melanoma; conditions: cited from earlier work
[2] = target: T1, MHC-I H2-K^b (Mus musculus, UniProt P01901); conditions: compared with peptide #1 TWHRYHLL; cited from earlier work
T1 sequence (P01901 22-369): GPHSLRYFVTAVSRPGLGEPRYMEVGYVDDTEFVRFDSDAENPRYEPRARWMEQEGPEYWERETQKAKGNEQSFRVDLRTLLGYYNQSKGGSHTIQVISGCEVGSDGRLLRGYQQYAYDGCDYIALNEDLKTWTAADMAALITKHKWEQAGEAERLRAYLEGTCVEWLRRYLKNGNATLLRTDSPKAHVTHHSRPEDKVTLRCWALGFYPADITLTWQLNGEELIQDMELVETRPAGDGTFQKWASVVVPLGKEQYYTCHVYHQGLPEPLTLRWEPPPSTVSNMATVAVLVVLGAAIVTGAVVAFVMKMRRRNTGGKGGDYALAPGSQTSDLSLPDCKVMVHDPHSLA
T1 sequence (P01887 21-119 partner): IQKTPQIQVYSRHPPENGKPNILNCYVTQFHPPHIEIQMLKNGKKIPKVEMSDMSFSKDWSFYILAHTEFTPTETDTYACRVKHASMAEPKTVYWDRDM

[3] = tested on: αGT knockout mice; conditions: cited from earlier work

Substance | protective immunity against B16 melanoma ([1]; C57Bl/6 mice (H-2K^b), in the presence of adjuvant) | immunogenicity ([1]; in the absence of adjuvant) | binding affinity to MHC-I H2-K^b [2] | T cell response to BSA ([3]; mouse, in vivo) | production of anti-BSA IgG antibodies ([3]; without adjuvant)
TAYRYHLL | induces protective immunity | not immunogenic | better binding affinity | – | –
BSA conjugated with αGal: BSA conjugated with αGal | – | – | – | increase | significant production
